# Tests used:
# [1] = tested on: Phytophthora infestans (PHYTIN); experiment: microbe, parasite or virus in culture; type: cell-based; conditions: in Secale cereale, read-out: T8 PHYTIN in vitro Growth Inhibition
# [2] = tested on: Ustilago maydis (USTIMA); experiment: microbe, parasite or virus in culture; type: cell-based; conditions: Mycosarcoma maydis, read-out: T12 USTIMA in vitro Growth Inhibition
# [3] = tested on: Phytophthora infestans (PHYTIN); experiment: whole plant or invertebrate; conditions: in Solanum lycopersicum, 24 h, read-out: T3 PHYTIN in vivo 1 Day Protectant, control of fungal infection
# [4] = tested on: Mycosphaerella graminicola (Septoria tritici, SEPTTR); experiment: microbe, parasite or virus in culture; type: cell-based; conditions: Zymoseptoria tritici, read-out: T11 SEPTTR in vitro Growth Inhibition
# [5] = tested on: Magnaporthe grisea (Pyricularia oryzae, PYRIOR); experiment: microbe, parasite or virus in culture; type: cell-based; conditions: read-out: T9 PYRIOR in vitro Growth Inhibition
# [6] = tested on: Puccinia recondita (PUCCRT); experiment: Brown Rust of Wheat, whole plant 24 Hour Protectant (T5); conditions: wheat (cultivar Yuma), sprayed at 100 ppm, inoculated after 24 hours, read-out: T5 PUCCRT in vivo 1 Day Protectant, control of fungal infection
# [7] = tested on: Septoria tritici (SEPTTR); experiment: Leaf Blotch of Wheat, whole plant 24 Hour Protectant (T6); conditions: Zymoseptoria tritici; wheat (cultivar Monon), sprayed at 100 ppm, inoculated after 24 hours; read-out: T6 SEPTTR in vivo 1 Day Protectant, control of fungal infection
# [8] = tested on: Stagonospora nodorum (Leptosphaeria nodorum, LEPTNO); experiment: microbe, parasite or virus in culture; type: cell-based; conditions: Parastagonospora nodorum, read-out: T7 LEPTNO in vitro Growth Inhibition
# [9] = tested on: Rhizoctonia solani (RHIZSO); experiment: microbe, parasite or virus in culture; type: cell-based; conditions: read-out: T10 RHIZSO in vitro Growth Inhibition
# [10] = tested on: Leptosphaeria nodorum (LEPTNO); experiment: Glume Blotch of Wheat, whole plant 24 Hour Protectant (T2); conditions: Parastagonospora nodorum; wheat (cultivar Yuma), sprayed at 100 ppm, inoculated after 24 hours; read-out: T2 LEPTNO in vivo 1 Day Protectant, control of fungal infection
# [11] = tested on: Erysiphe graminis (ERYSGT); experiment: Powdery Mildew of Wheat, whole plant 24 Hour Protectant (T1); conditions: Blumeria graminis, in Triticum aestivum, read-out: T1 ERYSGT in vivo 1 Day Protectant, control of fungal infection
Structure (SMILES),inhibition at 25 ppm [1],inhibition at 25 ppm [2],pest or weed control at 100 ppm [3],inhibition at 25 ppm [4],inhibition at 25 ppm [5],pest or weed control at 100 ppm [6],pest or weed control at 100 ppm [7],inhibition at 25 ppm [8],inhibition at 25 ppm [9],pest or weed control at 100 ppm [10],pest or weed control at 100 ppm [11]
COC(=O)CCC(=O)OCOc1c(OC)ccnc1C(=O)N[C@H]1COC(=O)[C@H](Cc2ccccc2)[C@@H](OC(=O)C(C)C)[C@H](C)OC1=O [Compound 32],< 80%,< 80%,< 25%,< 80%,> 80%,75 to 100%,75 to 100%,> 80%,< 80%,75 to 100%,25 to 74%
COc1ccnc(C(=O)N[C@H]2COC(=O)[C@H](Cc3ccccc3)[C@@H](OC(=O)C(C)C)[C@H](C)OC2=O)c1OCOC(=O)C1CCCO1 (some centres unmarked) [Compound 34],< 80%,< 80%,< 25%,< 80%,< 80%,75 to 100%,75 to 100%,> 80%,< 80%,75 to 100%,25 to 74%
CCCOCC(=O)OCOc1c(OC)ccnc1C(=O)N[C@H]1COC(=O)[C@H](Cc2ccccc2)[C@@H](OC(=O)C(C)C)[C@H](C)OC1=O [Compound 35],< 80%,< 80%,< 25%,> 80%,> 80%,75 to 100%,75 to 100%,> 80%,> 80%,75 to 100%,25 to 74%
COc1ccnc(C(=O)N[C@H]2COC(=O)[C@H](Cc3ccccc3)[C@@H](OC(=O)C(C)C)[C@H](C)OC2=O)c1OCOC(=O)COC(C)C [Compound 36],< 80%,< 80%,< 25%,> 80%,> 80%,75 to 100%,75 to 100%,> 80%,< 80%,75 to 100%,< 25%
CCCCOCC(=O)OCOc1c(OC)ccnc1C(=O)N[C@H]1COC(=O)[C@H](Cc2ccccc2)[C@@H](OC(=O)C(C)C)[C@H](C)OC1=O [Compound 37],< 80%,> 80%,< 25%,> 80%,> 80%,75 to 100%,75 to 100%,> 80%,< 80%,75 to 100%,25 to 74%
COc1ccnc(C(=O)N[C@H]2COC(=O)[C@H](Cc3ccccc3)[C@@H](OC(=O)C(C)C)[C@H](C)OC2=O)c1OCOC(=O)COCC(C)C [Compound 38],< 80%,< 80%,< 25%,> 80%,> 80%,75 to 100%,75 to 100%,> 80%,< 80%,75 to 100%,25 to 74%
CCC(C)OCC(=O)OCOc1c(OC)ccnc1C(=O)N[C@H]1COC(=O)[C@H](Cc2ccccc2)[C@@H](OC(=O)C(C)C)[C@H](C)OC1=O (some centres unmarked) [Compound 39],< 80%,< 80%,< 25%,> 80%,> 80%,75 to 100%,75 to 100%,> 80%,< 80%,75 to 100%,25 to 74%
COCCOCC(=O)OCOc1c(OC)ccnc1C(=O)N[C@H]1COC(=O)[C@H](Cc2ccccc2)[C@@H](OC(=O)C(C)C)[C@H](C)OC1=O [Compound 40],< 80%,> 80%,< 25%,> 80%,> 80%,75 to 100%,75 to 100%,> 80%,> 80%,75 to 100%,25 to 74%
COc1ccnc(C(=O)N[C@H]2COC(=O)[C@H](Cc3ccccc3)[C@@H](OC(=O)C(C)C)[C@H](C)OC2=O)c1OCOC(=O)COC1CCCC1 [Compound 41],< 80%,> 80%,< 25%,> 80%,> 80%,75 to 100%,75 to 100%,> 80%,< 80%,75 to 100%,25 to 74%
COc1ccnc(C(=O)N[C@H]2COC(=O)[C@H](Cc3ccccc3)[C@@H](OC(=O)C(C)C)[C@H](C)OC2=O)c1OCOC(=O)COc1ccccc1 [Compound 42],< 80%,< 80%,< 25%,> 80%,> 80%,75 to 100%,< 25%,> 80%,< 80%,75 to 100%,< 25%
COc1ccnc(C(=O)N[C@H]2COC(=O)[C@H](Cc3ccccc3)[C@@H](OC(=O)C(C)C)[C@H](C)OC2=O)c1OC1OC(=O)c2ccccc21 (some centres unmarked) [Compound 43],< 80%,< 80%,< 25%,> 80%,< 80%,75 to 100%,75 to 100%,> 80%,< 80%,75 to 100%,25 to 74%
CCOC(=O)OCOc1c(OC)ccnc1C(=O)N[C@H]1COC(=O)[C@H](Cc2ccccc2)[C@@H](OC(=O)C(C)C)[C@H](C)OC1=O [Compound 45],< 80%,< 80%,25 to 74%,< 80%,> 80%,75 to 100%,75 to 100%,> 80%,< 80%,75 to 100%,25 to 74%
CCCOC(=O)OCOc1c(OC)ccnc1C(=O)N[C@H]1COC(=O)[C@H](Cc2ccccc2)[C@@H](OC(=O)C(C)C)[C@H](C)OC1=O [Compound 46],< 80%,< 80%,< 25%,< 80%,> 80%,75 to 100%,75 to 100%,> 80%,< 80%,75 to 100%,25 to 74%
COCCOC(=O)OCOc1c(OC)ccnc1C(=O)N[C@H]1COC(=O)[C@H](Cc2ccccc2)[C@@H](OC(=O)C(C)C)[C@H](C)OC1=O [Compound 48],< 80%,> 80%,< 25%,< 80%,< 80%,75 to 100%,75 to 100%,> 80%,< 80%,75 to 100%,75 to 100%
COCCC(=O)OCOc1c(OC)ccnc1C(=O)N[C@H]1COC(=O)[C@H](Cc2ccccc2)[C@@H](OCC(C)C)[C@H](C)OC1=O [Compound 54],< 80%,> 80%,< 25%,> 80%,> 80%,75 to 100%,75 to 100%,> 80%,< 80%,75 to 100%,75 to 100%
CCCO[C@H]1[C@H](C)OC(=O)[C@@H](NC(=O)c2nccc(OC)c2OCOC(=O)CCOC)COC(=O)[C@@H]1Cc1ccccc1 [Compound 55],< 80%,< 80%,< 25%,> 80%,> 80%,75 to 100%,75 to 100%,> 80%,< 80%,75 to 100%,75 to 100%
